From patent US10980828B2, “Method of using cyclodextrin” (L&F Research LLC, priority 2012, dated 2021)

Key:
human islets = assay: Human islet perifusion: glucose stimulated insulin release; format: cell-based; conditions: human islets from four preparations, pretreated with 0.5 mM CD for one hour, vs untreated
Experimental: BTBR ob/ob mice treatment and analysis. BTBR ob/ob mice were purchased from Jackson Laboratories. Mice were injected subcutaneously with 4,000 mg/kg CD or saline as reported previously, three times per week for 5 months. Urine was collected, and body weight and glycemia (OneTouch) were determined weekly. Six mice per group were analyzed. All animal procedures were approved by the Institutional Animal Care and Use Committee (IACUC). After isotonic saline perfusion, the right kidney was removed for cholesterol content determination and mRNA extraction. One left kidney pole was embedded in OCT, a second pole fixed in 4% PFA and paraffin-embedded for histological analysis. Blood samples were analyzed for CBC, lipid panel, AST, ALT, Alkaline Phosphatase, GGT, and BUN in the Comparative Laboratory Core Facility, University of Miami. Serum creatinine was determined by tandem mass spectrometry at the UAB-UCSD O'Brien Core Center, University of Alabama at Birmingham, using the methods previously described. The urine albumin content was measured by ELISA (Bethyl Laboratories). Urinary creatinine was assessed by an assay based on the Jaffe method (Stanbio). Values are expressed as μg albumin/mg creatinine. Fasting plasma insulin was determined by ELISA (Mercodia, SW). […]

human podocytes [1] = assay: Western blotting and luminex (insulin stimulated AKT phosphorylation, MyD88) in podocytes exposed to patient sera; format: cell-based; conditions: DKD+ treated podocytes, 5 mM CD pretreatment 1 hour
Experimental: Human podocyte culture. Human podocytes were cultured and differentiated as previously described and serum starved in 0.2% FBS prior to experiments. When patient sera were utilized, starved cells were exposed to 4% patient sera for 24 hours. For insulin treatment experiments, 100 nmol insulin was added to the culture medium for 15 minutes after exposure to patient sera. […] Western blotting and luminex. Cell lysate collection and Western blotting was performed as previously described. The following primary antibodies were used: rabbit-polyclonal-anti-MyD88 (Cell Signaling), rabbit-polyclonal-anti-phosphorylated ([…]) or anti-total-AKT (Cell Signaling), mouse-monoclonal-anti-rhoA (Santa Cruz), or mouse-monoclonal-anti-Gapdh (6C5, Calbiochem) antibody. Secondary Anti-mouse-IgG-HRP or and Anti-rabbit-IgG-HRP Conjugate (Promega) were used. Image acquisition was performed using the chemiluminescent imager SRX-101A (Konica Minolta medical imaging, USA) and band densitometry was analyzed using ImageJ software (NIH). Alternatively, phosphorylated/total AKT was quantified using luminex technology as previously reported.

BTBR ob/ob mice [2] = assay: BTBR ob/ob mice treatment: body weight, glycemia, insulin, IPGTT, insulin sensitivity; format: in vivo
Experimental: (§1) BTBR ob/ob mice treatment and analysis. BTBR ob/ob mice were purchased from Jackson Laboratories. Mice were injected subcutaneously with 4,000 mg/kg CD or saline as reported previously, three times per week for 5 months. Urine was collected, and body weight and glycemia (OneTouch) were determined weekly. Six mice per group were analyzed. All animal procedures were approved by the Institutional Animal Care and Use Committee (IACUC). After isotonic saline perfusion, the right kidney was removed for cholesterol content determination and mRNA extraction. One left kidney pole was embedded in OCT, a second pole fixed in 4% PFA and paraffin-embedded for histological analysis. Blood samples were analyzed for CBC, lipid panel, AST, ALT, Alkaline Phosphatase, GGT, and BUN in the Comparative Laboratory Core Facility, University of Miami. Serum creatinine was determined by tandem mass spectrometry at the UAB-UCSD O'Brien Core Center, University of Alabama at Birmingham, using the methods previously described. The urine albumin content was measured by ELISA (Bethyl Laboratories). Urinary creatinine was assessed by an assay based on the Jaffe method (Stanbio). Values are expressed as μg albumin/mg creatinine. Fasting plasma insulin was determined by ELISA (Mercodia, SW). Intraperitoneal glucose tolerance tests (IPGTT) were performed 4 months after treatment; after 5-hr fasting, blood glucose was recorded at baseline and up to 180 minutes after a glucose bolus (1.5 g/kg). For insulin sensitivity, glycemia was monitored at baseline and up to 150 minutes after intraperitoneal injection of 4 mU/g of short acting insulin. Human islets from four different isolations were pretreated with 0.5 mM CD for one hour and perfused as described before to determine insulin release in response to glucose and KCl.

BTBR mice = assay: Safety of chronic subcutaneous CD in BTBR mice (blood analysis at sacrifice); format: in vivo; conditions: at sacrifice, 4,000 mg/kg s.c. three times per week for 5 months
Experimental: as §1
FIG. 3 is a table illustrating the safety of CD in 4-week old BTBR mice treated following subcutaneous administration of three weekly injections of hydroxypropyl-β-cyclodextrin (CD, 4,000 mg/kg body weight) for five months.

human podocytes [3] = assay: Determination of cholesterol content in podocytes exposed to patient sera; format: cell-based; conditions: DKD+ treated podocytes, 5 mM CD pretreatment 1 hour
Experimental: Human podocyte culture. Human podocytes were cultured and differentiated as previously described and serum starved in 0.2% FBS prior to experiments. When patient sera were utilized, starved cells were exposed to 4% patient sera for 24 hours. For insulin treatment experiments, 100 nmol insulin was added to the culture medium for 15 minutes after exposure to patient sera. […] Determination of cholesterol content. Esterified cholesterol was determined as difference between total and free cholesterol using an enzymatic assay and normalized to cell protein content. The cellular content of lipid droplets was determined using Oil red O (ORO). Cells were fixed and permeabilized as described above, washed in PBS and in 60% isopropanol, followed by incubation in ORO (0.5% ORO in isopropanol, 1:3 diluted) for 15 min at room temperature and counterstaining with hematoxylin for 1 min. The fraction of ORO positive cells over two hundred consecutive cells was calculated by bright field microscopy.

ABCA1 [4] = assay: ABCA1 mRNA expression in kidney cortex of BTBR ob/ob mice; format: in vivo; conditions: BTBR ob/ob mice, 4,000 mg/kg s.c. three times per week, 5 months
Experimental: Quantitative Real Time PCR (QRT-PCR). Podocyte RNA was extracted using the RNAeasy Mini Kit (Qiagen). Reverse transcription was performed using the high-capacity cDNA reverse transcriptase kit (Applied Biosystems) according to the manufacturer's protocols. QRT-PCR was performed in the StepOnePlus real-time PCR system (Applied Biosystems) using the PerfeCTa® SYBR® Green FastMix (Quanta Biosciences). Relative gene expression was determined as 2^-ΔCt, with ΔCt being the difference between the cycle threshold (Ct) value of the target gene and Gapdh. For semi-quantitative expression analysis, PCR was performed and analyzed by gel electrophoresis. Amplification product intensities were determined using ImageJ software (NIH), values were normalized and expressed as fold changes in gene expression over GAPDH. The following primers were used: hABCA1-F, […]; hABCA1-R, […]; hLDL-R-F, […]; hLDL-R-R, […]; hHMG-CoA-R-F, […]; hHMG-CoA-R-R, […]; hGAPDH-F, […]; hGAPDH-R, Hs_ABCA1-SG QuantiTect-Primer-Assay (Qiagen); mAbca1-F, […]; mAbca1-R, […].
BTBR ob/ob mice treatment and analysis. […] Urine was collected, and body weight and glycemia (OneTouch) were determined weekly. Six mice per group were analyzed. […] Blood samples were analyzed for CBC, lipid panel, AST, ALT, Alkaline Phosphatase, GGT, and BUN in the Comparative Laboratory Core Facility, University of Miami. […]

[5] = intravenous infusions; cited from earlier work
ABCA1 [6] = assay: ABCA1 immunofluorescence staining in pancreata of BTBR mice; format: in vivo
Source text: IPGTT performed one week prior to sacrifice were improved in CD treated homozygous mice when compared to homozygous controls. As improvement was observed despite a similar insulin sensitivity test, we analyzed the effect of low dose CD on the function of four different preparations of human islet cells. […] To determine whether the beneficial effect of CD on islet cell function was associated with the modulation of ABCA1 expression in pancreatic islets, we performed immunofluorescence staining using a rabbit polyclonal ABCA1 antibody (gift from Dr. A. Mendez) and determined ABCA1 expression as mean fluorescence intensity per pancreata analyzed. […] As hemolytic anemia and liver toxicity have been described while using other cyclodextrin derivatives in rodents and humans, and because we administered high dose CD for a period of 5 months, we studied hemoglobin, aspartate aminotransferase (AST), alanine transaminase (ALT) and gamma-glutamyltransferase (GGT) at sacrifice.

human podocytes [7] = assay: Human podocytes exposed to DKD+ patient sera: immunofluorescence staining (filipin, phospho-caveolin, F-actin, cell blebbing); format: cell-based
Experimental: We used a previously established cell-based assay in which differentiated human podocytes are exposed to 4% patient sera for 24 hours to identify new pathways and targets in DKD. […] Excessive cholesterol deposition has indeed been described in glomeruli of rodent models of T1D and T2D and may contribute to DKD development and progression.
(§2) Human podocyte culture. Human podocytes were cultured and differentiated as previously described and serum starved in 0.2% FBS prior to experiments. When patient sera were utilized, starved cells were exposed to 4% patient sera for 24 hours. For insulin treatment experiments, 100 nmol insulin was added to the culture medium for 15 minutes after exposure to patient sera.
Immunofluorescence staining. […] Fluorescence detection was performed using Alexa Fluor secondary antibodies (Invitrogen). For cholesterol determination, filipin (Sigma) staining was performed as described. F-actin was visualized by Rhodamine Phalloidin (Invitrogen). Two hundred consecutive cells per condition were studied. Slides were prepared with DAPI enriched mounting media (Vectashield) and analyzed by confocal microscopy.

BTBR ob/ob mice [8] = assay: BTBR ob/ob mice treatment: diabetic kidney disease readouts; format: in vivo
Experimental: as §1
Histology, assessment of mesangial expansion and glomerular surface area. Periodic acid-Shiff's (PAS) staining of 4 μm thick tissue sections was performed. Twenty glomeruli per section were analyzed for mesangial expansion by semiquantitative analysis (scale 0-4) performed by two blinded independent investigators. The glomerular surface was delineated in each encountered glomerulus and the mean surface area calculated as described.

human podocytes [9] = assay: Apoptosis analysis (Caspase-3 colorimetric assay) in podocytes exposed to patient sera; format: cell-based; conditions: DKD+ treated podocytes, 5 mM CD pretreatment 1 hour
Experimental: as §2, with “sera. […] Apoptosis analysis. Apoptosis was assessed using the Caspase-3/CPP32 Colorimetric Assay kit (Biovision) according to the manufacturer's description. Caspase 3 activity was normalized to cell number and expressed as fold change to controls.” for “sera.”

[10] = BTBR ob/ob mice, 4,000 mg/kg s.c. three times per week, after four months of treatment
[11] = sera collected at sacrifice, BTBR ob/ob mice, 4,000 mg/kg s.c. three times per week
[12] = podocytes pretreated 1 hour with 5 mM CD, exposed to 4% DKD+ sera 24 hours
[13] = serum at sacrifice, 4,000 mg/kg s.c. three times per week, 5 months

## CC(O)COC[C@H]1O[C@@H]2O[C@H]3[C@H](O)[C@@H](O)[C@@H](O[C@H]4[C@H](O)[C@@H](O)[C@@H](O[C@H]5[C@H](O)[C@@H](O)[C@@H](O[C@H]6[C@H](O)[C@@H](O)[C@@H](O[C@H]7[C@H](O)[C@@H](O)[C@@H](O[C@H]8[C@H](O)[C@@H](O)[C@@H](O[C@H]1[C@H](O)[C@H]2O)O[C@@H]8COCC(C)O)O[C@@H]7COCC(C)O)O[C@@H]6COCC(C)O)O[C@@H]5COCC(C)O)O[C@@H]4COCC(C)O)O[C@@H]3COCC(C)O (stereo partly drawn) [CD, hydroxypropyl-β-cyclodextrin]
Human islets
  glucose stimulated insulin release: significant improvement in glucose stimulated insulin release
Human podocytes [1]
  DKD+ induced MyD88 expression: prevented
Human podocytes [1]; 100 nmol insulin 15 minutes
  DKD+ induced insulin resistance (insulin stimulated AKT phosphorylation): prevented
BTBR ob/ob mice [2]; [10]
  body weight: reduction of body weight
  random glycemia: improvement of random glycemia
BTBR ob/ob mice [2]; BTBR ob/ob mice, insulin 4 mU/g intraperitoneal
  sensitivity to a single dose of short acting insulin: did not affect the sensitivity
BTBR ob/ob mice [2]; CD treated homozygous mice vs homozygous controls, one week prior to sacrifice, glucose bolus 1.5 g/kg
  IPGTT (glucose tolerance): improved
BTBR ob/ob mice [2]; [11]
  fasting plasma glucose: significant improvement
  fasting plasma insulin: significant improvement
BTBR mice
  alanine transaminase (ALT): No abnormalities
  aspartate aminotransferase (AST): No abnormalities
  gamma-glutamyltransferase (GGT): No abnormalities
  hemoglobin: No abnormalities
Human podocytes [3]
  accumulation of esterified cholesterol: prevented the accumulation of total and esterified cholesterol
  accumulation of total cholesterol: prevented the accumulation of total and esterified cholesterol
ABCA1 [4]
  ABCA1 mRNA expression in the kidney cortex: did not affect
[5]
  crossing from the bloodstream into the brain: does not cross from the bloodstream into the brain
ABCA1 [6]; heterozygous BTBR ob/+ mice, p<0.01
  ABCA1 expression in pancreata (mean fluorescence intensity): significantly increased ABCA1 expression
ABCA1 [6]; homozygous BTBR ob/ob mice, p<0.001
  ABCA1 expression in pancreata (mean fluorescence intensity): significantly increased ABCA1 expression
Human podocytes [7]; human podocytes exposed to sera of patients with diabetic kidney disease, CD
  cell blebbing: prevents
Human podocytes [7]; [12]
  localization of phosphorylated caveolin to focal adhesion sites: preserved the localization of phosphorylated caveolin to focal adhesion sites
  number of filipin-positive cells: reduced the number of filipin-positive cells
Human podocytes [7]; pretreated 1 hour with 5 mM CD or 1 μM simvastatin
  podocyte injury observed in vitro after exposure to patient sera: prevented podocyte injury
BTBR ob/ob mice [8]; BTBR ob/ob mice, 4,000 mg/kg s.c. three times per week, 5 months
  total cholesterol in the kidney cortex: significant reduction of total cholesterol
BTBR ob/ob mice [8]; BTBR ob/ob mice, 4,000 mg/kg s.c. three times per week, at 3 months, vs untreated, p<0.001
  albumin/creatinine ratios in morning spot urine: significant down-regulation
BTBR ob/ob mice [8]; BTBR ob/ob mice, 4,000 mg/kg s.c. three times per week, at sacrifice (5 months)
  kidney weight: reduction of kidney weight
BTBR ob/ob mice [8]; BTBR ob/ob mice, 4,000 mg/kg s.c. three times per week, until sacrifice (5 months)
  albumin/creatinine ratios in morning spot urine: decrease persisted until sacrifice
BTBR ob/ob mice [8]; PAS stained kidney sections, five months of treatment
  glomerular surface area: without affecting the glomerular surface area
BTBR ob/ob mice [8]; PAS stained kidney sections, semiquantitative scale 0-4, five months of treatment
  mesangial expansion: reduction of mesangial expansion
BTBR ob/ob mice [8]; homozygous BTBR ob/ob mice, 4,000 mg/kg s.c. three times per week, up to 2 months after treatment initiation
  albumin excretion rates: no changes
BTBR ob/ob mice [8]; [13]
  Blood urea nitrogen (BUN): not significantly affected
  serum creatinine: not significantly affected
Human podocytes [9]
  DKD+ induced apoptosis (cleaved Caspase 3): prevented DKD+ induced apoptosis
